Earlier results in patent publication US8653094B2, “Solid forms of (S)-ethyl 2-amino-3-(4-(2-amino-6-((R)-1-(4-chloro-2-(3-methyl-1H-pyrazol-1-yl)phenyl)-2,2,2-trifluoroethoxy)-pyrimidin-4-yl)phenyl)propanoate and methods of their use” (Lexicon Pharmaceuticals, Inc., priority 2007, dated 2014).

Key:
tryptophan hydroxylase = conditions: statement in words; see U.S. patent application No. 60/874,596
[1] = system: peripheral serotonin levels; conditions: when administered to animals; see U.S. patent application No. 60/874,596

- tryptophan hydroxylase inhibition (tryptophan hydroxylase): inhibitor of tryptophan hydroxylase
SMILES: CCOC(=O)[C@@H](N)Cc1ccc(-c2cc(O[C@H](c3ccc(Cl)cc3-n3ccc(C)n3)C(F)(F)F)nc(N)n2)cc1 [(S)-ethyl 2-amino-3-(4-(2-amino-6-((R)-1-(4-chloro-2-(3-methyl-1H-pyrazol-1-yl)phenyl)-2,2,2-trifluoroethoxy)pyrimidin-4-yl)phenyl)propanoate]
- effect on peripheral serotonin levels [1]: decreases peripheral serotonin levels
